Assay [1] in a line: M. tuberculosis H37Rv growth inhibitors, H37Rv strain (AID 1626). It is filed as functional.
The target in assay [2] is Epstein-Barr nuclear antigen 1 (Epstein-Barr virus (strain B95-8) (HHV-4) (Human herpesvirus 4), UniProt P03211). Put plainly: inhibition of EBV nuclear antigen 1 DNA binding – biochemical, fluorescence polarization, 1536-well, dose response (AID 2381).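 Note: fluorescence polarization of a Cy5 DNA probe bound by EBNA-1 protein.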 Also on record: species or system human gammaherpesvirus 4. (Fluorescence polarisation rises when a labelled molecule tumbles more slowly, as on binding a larger partner.)

Assay [3] concerns the target Lytic switch protein BZLF1 (Epstein-Barr virus (strain B95-8) (HHV-4) (Human herpesvirus 4), UniProt P03206). Description: inhibition of BZLF1 ZTA DNA binding – biochemical, fluorescence polarization, Epstein-Barr virus, 1536-well, counter-screen for EBNA-1 inhibitor project, dose response (AID 2377).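 Note: fluorescence polarization of Cy5-labelled ZRE DNA probe bound by purified Zta.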 Further details: species or system human gammaherpesvirus 4.
Assay [4] deals with Protein-tyrosine kinase 2-beta (Homo sapiens, UniProt Q14289).
Assay [5] has as its target Sphingosine 1-phosphate receptor 3 (Homo sapiens, UniProt Q99500). Put plainly: Dose response cell-based high throughput screening assay for antagonists of the Sphingosine 1-Phosphate Receptor 3 (S1P3). [Related pubchem assays: 1429, 485 ]. It is filed as functional.
For assay [6], the target named is 5-hydroxytryptamine receptor 1E (Homo sapiens, UniProt P28566). Put plainly: Counterscreen assay for S1P3 antagonists: Dose response cell-based high throughput screening assay to identify antagonists of the 5-Hydroxytryptamine Receptor Subtype 1E (5HT1E). [Related pubchem assays: 1429, 485 ]. It is filed as functional. A general note: A counterscreen serves to expose hits that act by an unwanted route or on another target.

Assay [7] addresses Glyceraldehyde-3-phosphate dehydrogenase (Homo sapiens, UniProt P04406).
The target of assay [8] is T1, Bcl-2-related protein A1 (Mus musculus, UniProt Q07440).
T1 sequence (Q07440 whole entry): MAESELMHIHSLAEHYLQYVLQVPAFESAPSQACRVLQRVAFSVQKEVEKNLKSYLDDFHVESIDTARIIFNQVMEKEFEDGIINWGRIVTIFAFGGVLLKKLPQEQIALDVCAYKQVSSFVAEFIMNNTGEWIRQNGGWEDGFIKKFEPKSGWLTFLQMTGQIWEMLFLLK
Description: Bfl-1 binding inhibitors, SAR follow-up, biochemical, fluorescence polarization (AID 1070).

Assay [9] deals with T1, Bcl-2-related protein A1. Put plainly: small-molecule antagonists of Bfl-1/BH3 interaction – biochemical, TR-FRET, mouse Bfl-1, confirmation (AID 621). (In TR-FRET formats the signal depends on donor and acceptor labels being close together.)
Assay [10] is described as follows: A High Throughput Confirmatory Assay used to Identify Novel Compounds that Inhibit Mycobacterium Tuberculosis in the absence of Glycerol. It is filed as functional.
Assay [11] is described as follows: M. tuberculosis growth inhibition, HTS (AID 449762). It is filed as functional.

The source made the active and inactive calls.

This passage reports IC50 results from ChEMBL document CHEMBL1201862, “PubChem BioAssay data set” (2004).

By IC50 is commonly meant the concentration that gives 50% inhibition.

Chain of Lytic switch protein BZLF1 (P03206 whole entry): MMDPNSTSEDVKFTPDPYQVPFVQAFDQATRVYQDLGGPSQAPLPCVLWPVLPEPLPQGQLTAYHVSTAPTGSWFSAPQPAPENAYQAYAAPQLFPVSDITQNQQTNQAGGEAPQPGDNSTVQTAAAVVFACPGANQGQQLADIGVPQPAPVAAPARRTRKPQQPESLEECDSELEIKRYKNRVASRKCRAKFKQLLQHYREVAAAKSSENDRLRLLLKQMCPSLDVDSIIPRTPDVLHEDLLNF
Chain of Protein-tyrosine kinase 2-beta (Q14289 whole entry): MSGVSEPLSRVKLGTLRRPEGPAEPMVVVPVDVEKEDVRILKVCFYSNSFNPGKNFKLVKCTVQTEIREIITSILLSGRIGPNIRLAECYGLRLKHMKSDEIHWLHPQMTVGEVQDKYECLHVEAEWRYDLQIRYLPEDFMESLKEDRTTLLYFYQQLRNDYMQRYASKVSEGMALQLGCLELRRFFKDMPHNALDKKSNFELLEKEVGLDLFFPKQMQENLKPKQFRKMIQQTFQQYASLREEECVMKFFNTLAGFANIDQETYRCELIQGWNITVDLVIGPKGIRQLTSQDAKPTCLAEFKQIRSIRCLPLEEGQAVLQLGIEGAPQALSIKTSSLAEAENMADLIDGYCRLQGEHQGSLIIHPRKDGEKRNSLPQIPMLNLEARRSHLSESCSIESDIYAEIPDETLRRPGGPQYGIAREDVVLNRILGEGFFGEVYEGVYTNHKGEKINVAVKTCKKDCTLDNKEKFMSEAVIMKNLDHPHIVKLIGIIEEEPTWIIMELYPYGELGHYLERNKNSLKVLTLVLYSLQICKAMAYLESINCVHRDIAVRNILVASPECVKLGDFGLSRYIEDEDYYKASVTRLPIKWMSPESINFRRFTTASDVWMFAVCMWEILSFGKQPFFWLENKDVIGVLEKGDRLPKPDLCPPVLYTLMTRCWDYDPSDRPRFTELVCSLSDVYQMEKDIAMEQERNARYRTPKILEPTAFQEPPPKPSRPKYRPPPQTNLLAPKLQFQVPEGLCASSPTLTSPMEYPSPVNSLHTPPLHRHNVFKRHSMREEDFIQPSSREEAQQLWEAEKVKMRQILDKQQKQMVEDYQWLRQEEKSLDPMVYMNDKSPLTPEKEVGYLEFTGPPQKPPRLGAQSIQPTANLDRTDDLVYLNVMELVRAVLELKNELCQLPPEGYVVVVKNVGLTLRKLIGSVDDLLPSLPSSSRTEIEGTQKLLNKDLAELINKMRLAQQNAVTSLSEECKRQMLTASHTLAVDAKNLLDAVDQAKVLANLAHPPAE
Chain of 5-hydroxytryptamine receptor 1E (P28566 whole entry): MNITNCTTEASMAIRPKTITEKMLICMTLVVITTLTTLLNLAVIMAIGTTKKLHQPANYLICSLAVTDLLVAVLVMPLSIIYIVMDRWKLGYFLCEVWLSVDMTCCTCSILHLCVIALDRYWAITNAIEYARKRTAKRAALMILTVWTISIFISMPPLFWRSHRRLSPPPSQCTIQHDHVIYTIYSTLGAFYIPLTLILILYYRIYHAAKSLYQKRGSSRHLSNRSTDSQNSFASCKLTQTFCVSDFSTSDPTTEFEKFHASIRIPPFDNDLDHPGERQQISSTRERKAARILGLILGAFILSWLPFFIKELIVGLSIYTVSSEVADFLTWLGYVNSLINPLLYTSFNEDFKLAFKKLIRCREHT
Chain of Epstein-Barr nuclear antigen 1 (P03211 whole entry): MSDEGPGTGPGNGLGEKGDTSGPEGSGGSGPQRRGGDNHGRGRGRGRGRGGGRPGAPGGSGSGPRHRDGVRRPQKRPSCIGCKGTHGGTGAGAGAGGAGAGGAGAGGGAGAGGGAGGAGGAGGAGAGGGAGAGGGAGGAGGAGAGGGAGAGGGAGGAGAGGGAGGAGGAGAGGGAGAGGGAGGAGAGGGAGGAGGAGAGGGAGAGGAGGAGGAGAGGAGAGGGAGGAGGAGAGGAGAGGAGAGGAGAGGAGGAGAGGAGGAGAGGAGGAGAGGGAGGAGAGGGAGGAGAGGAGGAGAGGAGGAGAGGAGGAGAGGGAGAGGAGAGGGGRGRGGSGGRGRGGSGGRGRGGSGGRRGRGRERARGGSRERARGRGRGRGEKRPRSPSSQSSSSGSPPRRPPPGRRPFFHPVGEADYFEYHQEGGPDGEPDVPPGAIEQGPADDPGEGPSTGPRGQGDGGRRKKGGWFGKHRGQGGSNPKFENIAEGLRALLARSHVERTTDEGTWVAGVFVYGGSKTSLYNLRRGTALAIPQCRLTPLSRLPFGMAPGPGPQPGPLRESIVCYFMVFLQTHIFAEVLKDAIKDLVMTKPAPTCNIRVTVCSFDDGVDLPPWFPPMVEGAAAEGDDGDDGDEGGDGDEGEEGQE
Chain of Sphingosine 1-phosphate receptor 3 (Q99500 whole entry): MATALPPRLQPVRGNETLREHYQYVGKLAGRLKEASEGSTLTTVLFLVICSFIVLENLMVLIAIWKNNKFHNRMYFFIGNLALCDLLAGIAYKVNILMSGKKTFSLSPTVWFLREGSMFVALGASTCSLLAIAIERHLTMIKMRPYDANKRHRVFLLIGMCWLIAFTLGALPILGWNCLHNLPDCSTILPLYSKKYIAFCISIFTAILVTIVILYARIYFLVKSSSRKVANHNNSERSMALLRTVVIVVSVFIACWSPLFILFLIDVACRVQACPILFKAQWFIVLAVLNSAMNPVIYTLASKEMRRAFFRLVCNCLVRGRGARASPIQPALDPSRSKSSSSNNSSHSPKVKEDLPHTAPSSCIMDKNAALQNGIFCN
Chain of Glyceraldehyde-3-phosphate dehydrogenase (P04406 whole entry): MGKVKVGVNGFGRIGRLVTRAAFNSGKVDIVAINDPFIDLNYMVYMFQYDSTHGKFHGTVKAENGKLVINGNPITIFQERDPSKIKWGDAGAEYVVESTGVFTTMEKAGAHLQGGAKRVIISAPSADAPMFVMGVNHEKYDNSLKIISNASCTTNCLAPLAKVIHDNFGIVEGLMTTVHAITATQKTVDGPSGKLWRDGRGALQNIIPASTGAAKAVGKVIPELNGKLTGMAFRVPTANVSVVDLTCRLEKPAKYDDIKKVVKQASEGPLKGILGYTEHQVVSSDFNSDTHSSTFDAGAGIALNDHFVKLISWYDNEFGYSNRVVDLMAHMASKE

With `CCc1ccc(Nc2c([N+](=O)[O-])c(=O)oc3ccccc23)cc1`, the IC50 in [1] was > 100 µM (active). Turning to `O=C(Nc1ccc(Oc2ccc3c(c2)C(=O)N(c2ccc(O)cc2)C3=O)cc1)c1cccs1`, the figures for the IC50 in [2] and in assay [3] were 15.1 µM (not active) and > 111 µM (not active), respectively. In the case of `CCN(CC)S(=O)(=O)c1cc([N+](=O)[O-])ccc1NNC(=O)Nc1ccccc1`, in assay [4], the IC50 was > 69.5 µM (not active).

Consider `CC1CCCCN1C(=O)Cn1cc(C(=O)c2ccco2)c2ccccc21` (stereo unspecified), for which the half-maximal inhibitory concentration (IC50) in assay [5] and in assay [6] was > 50 µM (not active) each time.

Turning to `O=C1C(Cl)=C(Cl)C(=O)N1c1cccc(Cl)c1Cl`, the IC50 in assay [7] was > 100 µM (not active); at Bcl-2-related protein A1 [8] it was 0.979 µM (active); at Bcl-2-related protein A1 [9], 0.5 µM (active). For the molecule `O=c1c2ccccc2nc(/C=C/c2ccccc2)n1-c1ccc(O)cc1`, the IC50 is > 50 µM (active) in assay [10] and > 100 µM (active) in [11].
